Experimental findings from patent publication US6544787B1, “Non-myeloablative/lymphoablative conditioning regimen to induce patient anti-donor unresponsiveness in stem cell transplantation” (Hadash Medical Research Services and Development Ltd., priority 1996, dated 2003) are described below.

In assay [1] the test system is patient with ovarian cancer stage IIIc. Nature of the assay: CA-125 during prior chemotherapy, case history. Format: in vivo, human. Further details: unit not given here.
In assay [2] the test system is human patients with malignant and non-malignant pathogenic cell diseases. Format: in vivo. As to conditions: the other 8 patients who developed GVHD; starting with 2 mg/kg.
The test system of assay [3] is cultured erythroid colonies. Nature of the assay: β-globin gene mutation assay on cultured erythroid colonies +/- Epo. Format: cell-based, human. The settings on record: in the presence of Epo; 7% without Epo. On the procedure: To clarify the unusual clinical picture of this patient, a β-globin gene mutation assay was performed on cultured erythroid colonies, +/− erythropoietin (Epo). […] Donor cells without Epo amounted to 7%, similar to their percentage in peripheral blood lymphocytes and nucleated BMC, rising to 16% in the presence of Epo.

Several values for one entry are separate records, joined by “and”; a condition that tells them apart may be missing. Equal values may be shown once.

Consider `CC(=O)O[C@H]1C(=O)[C@@]2(C)[C@H]([C@H](OC(=O)c3ccccc3)[C@]3(O)C[C@H](OC(=O)[C@H](O)[C@@H](NC(=O)c4ccccc4)c4ccccc4)C(C)=C1C3(C)C)[C@]1(OC(C)=O)CO[C@@H]1C[C@@H]2O` [Taxol], for which the CA-125 in assay [1] (175 mg/m^2, after 3 cycles, from 600) was 27; in assay [1] (after 10 cycles), ~22; in assay [1] (total of 28 courses) it was 152.

Turning to `C[C@]12C=CC(=O)C=C1CC[C@@H]1[C@@H]2C(=O)C[C@@]2(C)[C@H]1CC[C@]2(O)C(=O)CO` [prednisone], the “response of GVHD to treatment” value in assay [2] was “responded”.

erythropoietin [Epo]: the Donor cells in assay [3] is reported as 16%.

Regarding `N.N.[Cl][Pt][Cl]` [cisplatinum], the CA-125 in assay [1] (several courses 20 mg/d x3d q3w) was 328 and 439.6.
